Series [1] concerns Mus musculus. The series is described as follows: Anti-ulcerative colitis activity in DSS-induced acute C57Bl/6J mouse ulcerative colitis model assessed as improvement in lesions of inflammatory bowel disease at 200 mg/kg, po qd measured on day 8. In kind it is functional, organism-based.
Series [2] deals with Mus musculus. The series is described as follows: Anti-ulcerative colitis activity in DSS-induced acute C57Bl/6J mouse ulcerative colitis model assessed as improvement in colon contracture at 100 mg/kg, po qd measured on day 8 (reference value: 41.8%). The format is functional.
For series [3], the species on record is Mus musculus. In words: Potency index, ratio of compound activity to SASP activity for inhibition rate of disease activity index in DSS-induced acute C57Bl/6J mouse ulcerative colitis model. In kind it is functional.
In series [4] the test system is Mus musculus. The series is described as follows: Anti-ulcerative colitis activity in DSS-induced acute C57Bl/6J mouse ulcerative colitis model assessed as appearance of regularly arranged IEC cells at 200 mg/kg, po qd measured on day 8. The format is functional, organism-based.
Series [5] deals with Mus musculus. In words: Anti-ulcerative colitis activity in DSS-induced acute C57Bl/6J mouse ulcerative colitis model assessed as decrease in inflammatory lesions in colon tissue at 50 to 100 mg/kg, po qd measured on day 8. In kind it is functional, organism-based.
Series [6] relates to Mus musculus. In words: Anti-ulcerative colitis activity in DSS-induced acute C57Bl/6J mouse ulcerative colitis model assessed as inhibition rate of disease activity index at 200 mg/kg, po qd measured on day 8 relative to control. In kind it is functional. The conditions noted are these: 192 h.
In series [7] the test system is Mus musculus. The series is described as follows: Anti-ulcerative colitis activity in DSS-induced acute C57Bl/6J mouse ulcerative colitis model assessed as restoration of polarity arrangement of IEC cells to its normal physiological state at 200 mg/kg, po qd measured on day 8. The format is functional, organism-based.
Series [8] concerns Mus musculus. The series is described as follows: Toxicity in DSS-induced acute C57Bl/6J mouse ulcerative colitis model assessed as change in body weight at 100 mg/kg, po qd (reference value: -15.3%). The conditions noted are these: in vivo. In kind it is organism-based.
Series [9] deals with Mus musculus. The series is described as follows: Anti-ulcerative colitis activity in DSS-induced acute C57Bl/6J mouse ulcerative colitis model assessed as colon macroscopic damage index at 200 mg/kg, po qd measured on day 8 (reference value: 5.69 +/- 1.12). The format is functional.
Series [10] relates to Mus musculus. The series is described as follows: Anti-ulcerative colitis activity in DSS-induced acute C57Bl/6J mouse ulcerative colitis model assessed as inhibition rate of disease activity index at 50 mg/kg, po qd measured on day 8 relative to control. The format is functional. The note with it: 192 h.
The subject of series [11] is Mus musculus. The series is described as follows: Toxicity in DSS-induced acute C57Bl/6J mouse ulcerative colitis model assessed as change in body weight at 200 mg/kg, po qd (reference value: -15.3%). The format is organism-based. The note with it: in vivo.
In series [12] the test system is Mus musculus. In words: Toxicity in DSS-induced acute C57Bl/6J mouse ulcerative colitis model assessed as change in body weight at 50 mg/kg, po qd (reference value: -15.3%). In kind it is organism-based. The note with it: in vivo.
Series [13] relates to Mus musculus. In words: Anti-ulcerative colitis activity in po dosed DSS-induced acute C57Bl/6J mouse ulcerative colitis model assessed as decrease in colon macroscopic damage index administered as qd measured on day 8. In kind it is functional, organism-based.
The target in series [14] is T1, X-box-binding protein 1 (Homo sapiens) (UniProt P17861).
T1 sequence (whole entry): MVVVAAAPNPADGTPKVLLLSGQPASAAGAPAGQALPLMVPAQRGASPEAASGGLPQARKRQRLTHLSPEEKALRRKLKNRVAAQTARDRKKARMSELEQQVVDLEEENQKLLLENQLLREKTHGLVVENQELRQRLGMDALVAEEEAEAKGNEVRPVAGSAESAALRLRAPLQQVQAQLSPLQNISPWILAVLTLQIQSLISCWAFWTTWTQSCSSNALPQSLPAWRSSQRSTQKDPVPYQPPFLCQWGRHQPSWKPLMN
In words: Transactivation of XBP1 (unknown origin) transfected in rat IEC-6 cells at 10 uM after 48 hrs by dual luciferase reporter gene assay. In kind it is cell-based. (In a reporter assay the amount or activity of a reporter protein is the signal.)

In series [15] the test system is Mus musculus. In words: Anti-ulcerative colitis activity in po dosed DSS-induced acute C57Bl/6J mouse ulcerative colitis model assessed as inhibition rate of disease activity index administered as qd measured on day 8. The format is functional, organism-based.
The target in series [16] is T1, X-box-binding protein 1 (Homo sapiens). The series is described as follows: Transactivation of XBP1 (unknown origin) transfected in rat IEC-6 cells at 10 uM after 48 hrs by dual luciferase reporter gene assay relative to con 2. In kind it is cell-based.
In series [17] the test system is Mus musculus. The series is described as follows: Anti-ulcerative colitis activity in DSS-induced acute C57Bl/6J mouse ulcerative colitis model assessed as improvement in colon contracture at 50 mg/kg, po qd measured on day 8 (reference value: 41.8%). The format is functional.
Series [18] relates to Mus musculus. In words: Anti-ulcerative colitis activity in DSS-induced acute C57Bl/6J mouse ulcerative colitis model assessed as inhibition rate of disease activity index at 100 mg/kg, po qd measured on day 8 relative to control. In kind it is functional. The note with it: 192 h.
The subject of series [19] is Mus musculus. The series is described as follows: Anti-ulcerative colitis activity in DSS-induced acute C57Bl/6J mouse ulcerative colitis model assessed as improvement in colon contracture at 200 mg/kg, po qd measured on day 8 (reference value: 41.8%). The format is functional.
The subject of series [20] is Mus musculus. The series is described as follows: Anti-ulcerative colitis activity in DSS-induced acute C57Bl/6J mouse ulcerative colitis model assessed as colon macroscopic damage index at 50 mg/kg, po qd measured on day 8 (reference value: 5.69 +/- 1.12). The format is functional.
In series [21] the test system is Mus musculus. In words: Anti-ulcerative colitis activity in DSS-induced acute C57Bl/6J mouse ulcerative colitis model assessed as colon macroscopic damage index at 100 mg/kg, po qd measured on day 8 (reference value: 5.69 +/- 1.12). In kind it is functional.

Activity calls are given as the source filed them. The rule behind the calls is not given here. Where only a bound is given, the exact number is not on record here.

By inhibition in vivo is commonly meant the change of the read-out against control, counted positive when it falls. For the molecule `C1=C2c3cc4c(cc3CCN2Cc2c1ccc1c2OCO1)OCO4`, the result (in the series with Mus musculus [1]; in the series on Mus musculus [4]; in the series on Mus musculus [7]; in [14]) was Active. For the same molecule, the Activity in the series on Mus musculus [2] is 20.8%; with Mus musculus [8] it was 0.4%; with Mus musculus [11] it was 6.8%; with Mus musculus [12] it was -7%; with Mus musculus [13], “Dose-dependent effect”; in the series on Mus musculus [17] it was 24.6%. In addition, the Activity in the series on Mus musculus [19] came out at 18.7%. Moreover, the Ratio entry in the series listed under Mus musculus [3] is “<=2”. Moreover, the outcome with Mus musculus [5] was inactive. In addition, the inhibition in vivo at 200 mg/kg with Mus musculus [6] worked out at 74%. In addition, the Activity_index turned out to be 2.16 with Mus musculus [9], 3.52 with Mus musculus [20] and 2.86 in the series on Mus musculus [21]. The inhibition in vivo at 50 mg/kg in the series on Mus musculus [10] came to 48%. Besides, the inhibition entry with Mus musculus [15] is “Dose-dependent effect”. The molecule also gave a fold change (FC) in [16] of 2.96. In the series on Mus musculus [18], the inhibition in vivo at 100 mg/kg is 55.9%.

These data come from ChEMBL document CHEMBL3611992, “Synthesis and Structure-Activity Relationships of Quaternary Coptisine Derivatives as Potential Anti-ulcerative Colitis Agents” (J Med Chem, 2015).
